Key:
Assay type in all cases: in vivo
[1] = test system: oat, wild (wild oat, Avena fatua); assay: Test C greenhouse herbicide test, postemergence; settings: for Plant response rating, Oat, Wild: Postemergence
In short: (§1)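 Test chemicals were applied postemergence to greenhouse plants at the 1- to 4-leaf stage (2–18 cm tall) growing in peat/vermiculite medium. After 13–15 d, injury was rated visually against untreated controls on a 0–100 scale (0 = no effect, 100 = complete control).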

[2] = test system: kochia (Kochia scoparia); assay: Test C greenhouse herbicide test, postemergence; settings: for Plant response rating, Kochia: Postemergence
In short: as §1

[3] = test system: foxtail, giant (giant foxtail, Setaria faberii); assay: Test C greenhouse herbicide test, pre- and postemergence
In short: (§2)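 Visual 0–100 injury score (100 = complete control) taken against untreated controls after 13–15 d in greenhouse. Test chemicals, formulated in solvent plus surfactant, applied preemergence to seeds in loam–sand soil or postemergence to 1- to 4-leaf plants (2–18 cm).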

[4] = test system: velvetleaf (Abutilon theophrasti); assay: as above
In short: as §2

[5] = test system: pigweed (Amaranthus retroflexus); assay: as above
In short: as §2

[6] = test system: morningglory (Ipomoea coccinea); assay: as above
In short: as §2

[7] = test system: waterhemp (common waterhemp, Amaranthus rudis); assay: as above
In short: as §2

[8] = test system: blackgrass (Alopecurus myosuroides); assay: as above
In short: as §2

[9] = test system: johnsongrass (Sorghum halepense); assay: as above
In short: as §2

[10] = test system: oilseed rape (Brassica napus); assay: as above
In short: as §2

[11] = test system: crabgrass, large (large crabgrass, Digitaria sanguinalis); assay: as above
In short: as §2

[12] = test system: lambsquarters (Chenopodium album); assay: as above
In short: as §2

[13] = test system: ragweed (common ragweed, Ambrosia elatior); assay: as above
In short: as §2

[14] = test system: soybean (Glycine max); assay: as above
In short: as §2

[15] = test system: ryegrass, Italian (Italian ryegrass, Lolium multiflorum); assay: as above
In short: as §2

[16] = test system: corn (Zea mays); assay: as above
In short: as §2

[17] = 125 g ai/ha, scale 0 to 100, 0 is no effect, 100 is complete control
[18] = 250 g ai/ha, scale 0 to 100, 0 no effect, 100 complete control, 13 to 15 d
[19] = postemergence, 62 g ai/ha, scale 0 to 100, 0 no effect, 100 complete control
[20] = Postemergence, 125 g ai/ha, scale 0 to 100, 0 is no effect, 100 is complete control
[21] = Postemergence, 250 g ai/ha, scale 0 to 100, 0 no effect, 100 complete control, 13 to 15 d
[22] = Preemergence, 31 g ai/ha, scale 0 to 100, 0 is no effect, 100 is complete control
[23] = Preemergence, 62 g ai/ha, scale 0 to 100, 0 is no effect, 100 is complete control
[24] = Preemergence, 125 g ai/ha, scale 0 to 100, 0 is no effect, 100 is complete control
[25] = Preemergence, 250 g ai/ha, scale 0 to 100 (0 no effect, 100 complete control)
[26] = Postemergence, 31 g ai/ha, 0 to 100 scale (0 no effect, 100 complete control)

## COC(=O)Oc1c(C)nn(C)c(=O)c1-c1c(C)sc2c(C)cc(C)cc12 [Compound 81]
[1]; [17]
  Plant response rating, Oat, Wild: 95
[1]; [18]
  Plant response rating, Oat, Wild: 95
[1]; [19]
  Oat, Wild plant response rating: 90
[2]; [17]
  Plant response rating, Kochia: 80
[2]; [18]
  Plant response rating, Kochia: 80
[2]; [19]
  Kochia plant response rating: 75
[3]; [20]
  Plant response rating, Foxtail, Giant: 90
[3]; [21]
  Plant response rating, Foxtail, Giant: 90
[3]; [22]
  Plant response rating, Foxtail, Giant: 80
[3]; [23]
  Plant response rating, Foxtail, Giant: 98
[3]; [24]
  Plant response rating, Foxtail, Giant: 98
[3]; [25]
  Foxtail, Giant plant response rating: 100
[3]; [19]
  Foxtail, Giant plant response rating: 85
[4]; [20]
  Plant response rating, Velvetleaf: 90
[4]; [21]
  Plant response rating, Velvetleaf: 90
[4]; [22]
  Plant response rating, Velvetleaf: 35
[4]; [23]
  Plant response rating, Velvetleaf: 65
[4]; [24]
  Plant response rating, Velvetleaf: 85
[4]; [25]
  Velvetleaf plant response rating: 98
[4]; [19]
  Velvetleaf plant response rating: 85
[5]; [20]
  Plant response rating, Pigweed: 85
[5]; [21]
  Plant response rating, Pigweed: 90
[5]; [22]
  Plant response rating, Pigweed: 98
[5]; [23]
  Plant response rating, Pigweed: 95
[5]; [24]
  Plant response rating, Pigweed: 95
[5]; [25]
  Pigweed plant response rating: 100
[5]; [19]
  Pigweed plant response rating: 85
[6]; [20]
  Plant response rating, Morningglory: 100
[6]; [21]
  Plant response rating, Morningglory: 98
[6]; [22]
  Plant response rating, Morningglory: 80
[6]; [23]
  Plant response rating, Morningglory: 85
[6]; [24]
  Plant response rating, Morningglory: 90
[6]; [25]
  Morningglory plant response rating: 95
[6]; [19]
  Morningglory plant response rating: 100
[7]; [20]
  Plant response rating, Waterhemp: 85
[7]; [21]
  Plant response rating, Waterhemp: 80
[7]; [22]
  Plant response rating, Waterhemp: 85
[7]; [23]
  Plant response rating, Waterhemp: 85
[7]; [24]
  Plant response rating, Waterhemp: 90
[7]; [25]
  Waterhemp plant response rating: 100
[7]; [19]
  Waterhemp plant response rating: 60
[8]; [26]
  Blackgrass plant response rating: 60
[8]; [20]
  Plant response rating, Blackgrass: 90
[8]; [21]
  Plant response rating, Blackgrass: 90
[8]; [22]
  Plant response rating, Blackgrass: 60
[8]; [23]
  Plant response rating, Blackgrass: 80
[8]; [24]
  Plant response rating, Blackgrass: 90
[8]; [25]
  Blackgrass plant response rating: 90
[8]; [19]
  Blackgrass plant response rating: 85
[9]; [20]
  Plant response rating, Johnsongrass: 5
[9]; [21]
  Plant response rating, Johnsongrass: 70
[9]; [22]
  Plant response rating, Johnsongrass: 25
[9]; [23]
  Plant response rating, Johnsongrass: 5
[9]; [24]
  Plant response rating, Johnsongrass: 45
[9]; [25]
  Johnsongrass plant response rating: 98
[9]; [19]
  Johnsongrass plant response rating: 5
[10]; [20]
  Plant response rating, Oilseed Rape: 85
[10]; [21]
  Plant response rating, Oilseed Rape: 45
[10]; [22]
  Plant response rating, Oilseed Rape: 0
[10]; [23]
  Plant response rating, Oilseed Rape: 5
[10]; [24]
  Plant response rating, Oilseed Rape: 40
[10]; [25]
  Oilseed Rape plant response rating: 95
[10]; [19]
  Oilseed Rape plant response rating: 65
[11]; [20]
  Plant response rating, Crabgrass, Large: 40
[11]; [21]
  Plant response rating, Crabgrass, Large: 55
[11]; [22]
  Plant response rating, Crabgrass, Large: 90
[11]; [23]
  Plant response rating, Crabgrass, Large: 75
[11]; [24]
  Plant response rating, Crabgrass, Large: 90
[11]; [25]
  Crabgrass, Large plant response rating: 98
[11]; [19]
  Crabgrass, Large plant response rating: 35
[12]; [20]
  Plant response rating, Lambsquarters: 98
[12]; [21]
  Plant response rating, Lambsquarters: 100
[12]; [22]
  Plant response rating, Lambsquarters: 75
[12]; [23]
  Plant response rating, Lambsquarters: 90
[12]; [24]
  Plant response rating, Lambsquarters: 85
[12]; [25]
  Lambsquarters plant response rating: 95
[12]; [19]
  Lambsquarters plant response rating: 95
[13]; [20]
  Plant response rating, Ragweed: 70
[13]; [21]
  Plant response rating, Ragweed: 85
[13]; [22]
  Plant response rating, Ragweed: 85
[13]; [23]
  Plant response rating, Ragweed: 95
[13]; [24]
  Plant response rating, Ragweed: 95
[13]; [25]
  Ragweed plant response rating: 98
[13]; [19]
  Ragweed plant response rating: 75
[14]; [20]
  Plant response rating, Soybean: 5
[14]; [21]
  Plant response rating, Soybean: 0
[14]; [22]
  Plant response rating, Soybean: 0
[14]; [23]
  Plant response rating, Soybean: 100
[14]; [24]
  Plant response rating, Soybean: 0
[14]; [25]
  Soybean plant response rating: 0
[14]; [19]
  Soybean plant response rating: 0
[15]; [20]
  Plant response rating, Ryegrass, Italian: 90
[15]; [21]
  Plant response rating, Ryegrass, Italian: 90
[15]; [22]
  Plant response rating, Ryegrass, Italian: 80
[15]; [23]
  Plant response rating, Ryegrass, Italian: 90
[15]; [24]
  Plant response rating, Ryegrass, Italian: 90
[15]; [25]
  Ryegrass, Italian plant response rating: 90
[15]; [19]
  Ryegrass, Italian plant response rating: 85
[16]; [26]
  Corn plant response rating: 0
[16]; [20]
  Plant response rating, Corn: 10
[16]; [21]
  Plant response rating, Corn: 0
[16]; [22]
  Plant response rating, Corn: 0
[16]; [23]
  Plant response rating, Corn: 10
[16]; [24]
  Plant response rating, Corn: 20
[16]; [25]
  Corn plant response rating: 30
[16]; [19]
  Corn plant response rating: 5
